Patent US20180015167A1, “CROSSLINKABLE TREHALOSE FOR THE COVALENT INCORPORATION IN HYDROGELS AND METHODS OF USE” (INVIVO THERAPEUTICS CORPORATION, priority 2013, published 2018)

Test: Solubility of hydrogel precursors in water / aqueous buffer
Format: physicochemical
Protocol: Hydrogels formed by mixing trehalose diacrylate and thiol-containing 4-arm PEG of molecular weight 5000 (4arm-PEG5k-SH). Briefly, trehalose diacrylate was dissolved in PBS (pH7.4, 1.06 mM potassium phosphate monobasic, 150 mM sodium chloride, 2.97 mM sodium phosphate dibasic) to prepare a trehalose-containing precursor solution at a concentration of 50 mg/ml. 9.42 mg 4arm-PEG5k-SH (0.0075 mmol thiols) was dissolved in 66.1 μl PBS and the solution was mixed with 33.9 μl trehalose diacrylate solution (1.7 mg, 1 molar equivalents based on thiols) and by vortexing.
Hydrogels formed by mixing ethoxylated-trimethylolpropan tri(thioglycolate) (TMPE-TGA), PEG diacrylate, and varying amounts of trehalose diacrylate. The following protocol has been used for gel formulation at the 150 μl scale. Briefly, TMPE-TGA was dissolved in PBS to prepare a 40 wt % thiol-containing precursor solution. Trehalose diacrylate was dissolved in PBS to prepare a trehalose-containing precursor solution at a concentration of 40 mg/ml. 10.875 mg PEG diacrylate of molecular weight 700 (PEGDA700, 0.75 molar equivalents based on thiols) was dissolved in 49.94 μl PBS and the solution was mixed with 58.3 μl trehalose diacrylate solution (2.33 mg, 0.25 molar equivalents based on thiols) and 41.8 μl TMPE-TGA solution (0.041 mmol thiols) by vortexing. […]

solubility in aqueous buffer (PBS pH7.4, room temperature): soluble in aqueous buffer
water solubility (PBS, room temperature): water soluble
Structure (SMILES): C=CC(=O)OC[C@H]1O[C@H](O[C@H]2O[C@H](COC(=O)C=C)[C@@H](O)[C@H](O)[C@H]2O)[C@H](O)[C@@H](O)[C@@H]1O [trehalose diacrylate]
